Literature values in patent US11851709B2, “HER2 as a predictor of response to dual HER2 blockade in the absence of cytotoxic therapy” (FUNDACIÓ PRIVADA INSTITUT D'INVESTIGACIÓ ONCOLÓGICA DE VALL …, priority 2016, dated 2023).

Key:
HER2+ breast cancer = settings: at 4.5-years; added to adjuvant trastuzumab and chemotherapy; statistically non-significant
[1] = test system: node-positive breast cancer; settings: interaction between HER2 positivity and addition of paclitaxel; P=0.01

SMILES	absolute benefit in DFS (HER2+ breast cancer)	hazard ratio for recurrence [1]
CS(=O)(=O)CCNCc1ccc(-c2ccc3ncnc(Nc4ccc(OCc5cccc(F)c5)c(Cl)c4)c3c2)o1 [lapatinib]	~2%	–
CC(=O)O[C@H]1C(=O)[C@@]2(C)[C@H]([C@H](OC(=O)c3ccccc3)[C@]3(O)C[C@H](OC(=O)[C@H](O)[C@@H](NC(=O)c4ccccc4)c4ccccc4)C(C)=C1C3(C)C)[C@]1(OC(C)=O)CO[C@@H]1C[C@@H]2O [paclitaxel]	–	0.59
